Measured values from PMC8869720, “A Sensitive Monoclonal-Antibody-Based ELISA for Forchlorfenuron Residue Analysis in Food Samples” (Biosensors, 2022).
pIC50: −log10 of the molar value. Converted amounts (≈) assume the structure as drawn. Read-outs that look alike come from different tables or passages of the source.

Key:
anti-CPPU mAb = assay: optimized indirect competitive ELISA (icELISA) with anti-CPPU monoclonal antibody; type: binding, mouse; settings: for Cross-Reactivity: CR (%) = IC50 CPPU/IC50 structural analogue × 100
Experimental: (§1) The icELISA protocol was performed as described previously. Briefly, 100 µL/well of coating antigen (1 µg/mL in CBS) was added to 96-well microtiter plates and stored at 37 °C overnight. The plate was rinsed twice with washing buffer and blocked by PBST containing 5% skimmed milk powder (120 µL/well) for 3 h at 37 °C. Then, the plate was rinsed twice and dried at 37 °C for 60 min. CPPU standard in PBS (50 µL) and the antibodies diluted in PBS (50 µL) were added and incubated at 37 °C for 40 min. After rinsing five times, the goat anti-mouse IgG-HRP was added (100 µL/well), followed by incubation for 30 min at 37 °C. After rinsing five times, the TMB solution (100 µL/well) was added and incubated for another 10 min at 37 °C. Stopping reagent (50 µL/well) was injected into each well to stop the chromogenic reaction, and the absorbance at 450 nm was measured using a microplate reader.
Many reports have shown that the immunoassay is an equilibrium binding reaction, and the experimental parameters used can affect the performance of the ELISA [28, 31, 32, 33]. In order to improve sensitivity of the established icELISA, the assay was optimized on concentrations of coating antigen and antibody, working buffer, and IgG-HRP dilution multiple. A standard curve for CPPU was obtained under optimal conditions by four-parameter sigmoidal fitting with Origin 9.0 software (OriginLab Corporation, Northampton, MA, USA). The IC10, IC20, IC50, and IC80 values correspond to the CPPU concentration levels that inhibit 10%, 20%, 50%, and 80% of the binding between mAb and the coating antigen, respectively. The IC10 value represents the LOD of the assay. The concentration levels from IC20 to IC80 are the linear range of the assay.
To evaluate the specificity of the mAb against CPPU, CR values with six structural analogs were chosen for evaluation. The CR values were calculated using Equation (1):CR (%) = IC50 CPPU/IC50 structural analogue × 100(1)

[1] = tested on: mice antisera against CPPU; assay: icELISA characterization of mice antisera: inhibition by CPPU; type: binding, mouse; settings: 1 μg/mL of competitor
Experimental: At the first immunization, each eight-week-old Balb/c female mouse was injected subcutaneously with 200 µL of an emulsion containing an equal volume of immunogen (1.0 mg/mL) and Freund’s complete adjuvant. In the subsequent booster immunizations, Freund’s incomplete adjuvant was substituted for Freund’s complete adjuvant and was injected at two-week intervals. After the third booster injection, the antisera were collected 7 days after each injection and checked by icELISA.
as §1

[2] = tested on: rabbit polyclonal antibody; set-up: method as in earlier work; settings: rabbit polyclonal antibody icELISA; cited from earlier work
[3] = tested on: monoclonal antibody (mAb); set-up: method as in doi:10.14088/j.cnki.issn0439-8114.2016.21.037; settings: immunogen CPPU-H1-BSA, coating antigen CPPU-H2-OVA; cited from earlier work
antisera to CPPU = tested on: antisera to CPPU; set-up: method as in PMID 18989973, PMID 20681638, PMID 22526663; settings: high-affinity antisera, Abad-Fuentes group; cited from earlier work
monoclonal antibody = tested on: monoclonal antibody; set-up: method as in PMID 22526663; settings: previous mAb-based ELISA for CPPU; cited from earlier work
[4] = optimum conditions: coating antigen 250 ng/mL, antibody 1:8000 dilution, PBS, IgG-HRP 1:5000

Row | SMILES | Cross-Reactivity (anti-CPPU mAb) | IC50 (anti-CPPU mAb; [4]) | also measured
1 | O=C(O)c1nc(Cl)ccc1Cl [3,6-Dichloropicolinic] | 0.63% | 0.1662 µg/mL | 
2 | O=C(Nc1ccccc1)Nc1ccnc(Cl)c1 [CPPU, Forchlorfenuron] | 100% | 0.00104 µg/mL | Inhibition of CPPU ([1]; immunogen CPPU-COOH-BSA, coating antigen CPPU-COOH-OVA): 58.4%; Inhibition of CPPU ([1]; immunogen CPPU-COOH-KLH, coating antigen CPPU-COOH-BSA): 55.6%; Inhibition of CPPU ([1]; immunogen CPPU-COOH-KLH, coating antigen CPPU-COOH-OVA): 55.9%; Inhibition of CPPU ([1]; immunogen CPPU-COOH-THY, coating antigen CPPU-COOH-BSA): 83.3%; Inhibition of CPPU ([1]; immunogen CPPU-COOH-THY, coating antigen CPPU-COOH-OVA): 82.9%; IC50 (anti-CPPU mAb; IC50 1.04 ng/mL given in nM, read-out: IC50): 4.2 nM; limit of detection (LOD, IC10) (anti-CPPU mAb; optimum conditions, IC10 value represents the LOD): 0.00016 µg/mL; IC50 [2]: 0.048 µg/mL (≈ 0.194 µM); LOD [2]: 1 ng/mL; IC50 [3]: 0.00389 µg/mL (≈ 0.0157 µM); pIC50 (antisera to CPPU): > 9.00
3 | CN(C)C(=O)Nc1ccc(Cl)c(Cl)c1 [Diuron] | 0.13% | 0.82379 µg/mL | 
4 | Nc1c(Cl)c(Cl)nc(C(=O)O)c1Cl [Picloram] | 0.23% | 0.45072 µg/mL | 
5 | Cc1ccc(NC(=O)N(C)C)cc1Cl [Chlortoluron] | 1.62% | 0.06434 µg/mL | 
6 | CON(C)C(=O)Nc1ccc(Cl)c(Cl)c1 [Linuron] | 0.46% | 0.22643 µg/mL | 
7 | O=C(Nc1ccccc1)Nc1cnns1 [Thidiazuron (TDZ), Thidiazuron] | 5.36% | 0.01942 µg/mL | cross-reactivity (CR) (monoclonal antibody): 71%; Cross-Reactivity (anti-CPPU mAb; listed as TDZ): less than 6%
